“Also recorded” adds a separate entry of the source.
Test system: light damaged rats
Experiment: Electroretinogram (ERG) in retina light damage model of dry AMD
Assay type: in vivo, Sprague Dawley (SD) rats
Conditions: for mixed a-wave amplitude vs light damaged control group: 1 week post treatment
Procedure: Retina Light Damage Model of Dry Age-Related Macular Degeneration—The intense light damage model was prepared and carried out as described in previous studies. Mat Nor N, Guo C X, Rupenthal ID, Chen Y S, Green C R, Acosta M L. Sustained Connexin43 Mimetic Peptide Release From Loaded Nanoparticles Reduces Retinal and Choroidal Photodamage. Invest Ophthalmol Vis Sci. 2018; 59:3682-93; Guo C X, Mat Nor M N, Danesh-Meyer H V, Vessey K A, Fletcher E L, O'Carroll S J, et al. Connexin43 Mimetic Peptide Improves Retinal Function and Reduces Inflammation in a Light-Damaged Albino Rat Model. Invest Ophthalmol Vis Sci. 2016; 57:3961-73; Guo C X, Tran H, Green C R, Danesh-Meyer H V, Acosta M L. Gap junction proteins in the light-damaged albino rat. Mol Vis. 2014; 20:670-82; Noell W K, Walker V S, Kang B S, Berman S. Retinal damage by light in rats. Invest Ophthalmol. 1966; 5:450-73. The light damage rat model was selected as it allows direct comparison with this and other drugs. Kim Y, Griffin J M, Nor M N M, Zhang J, Freestone P S, Danesh-Meyer H V, et al. Tonabersat Prevents Inflammatory Damage in the Central Nervous System by Blocking Connexin43 Hemichannels. Neurotherapeutics. 2017; 14:1148-65; Mat Nor N, Guo C X, Rupenthal ID, Chen Y S, Green C R, Acosta M L, supra; Guo C X, Mat Nor M N, Danesh-Meyer H V, Vessey K A, Fletcher E L, O'Carroll S J, et al., supra. […] All experimental procedures were approved by the University of Auckland Animal Ethics Committee, approval No. 001462 and comply with the Association for Research in Vision and Ophthalmology (ARVO) statement for the use of animals in eye research. Six to eight-week old albino Sprague Dawley (SD) rats (200-250 g; male or female) were used. Adult SD rats were exposed to continuous bright light for 24 hours, consistently starting at 9:00 am to minimize possible time-of-day variability. Light exposure was to two animals at a time to prevent rats from taking cover using each other as a shield. The LD protocol and intervention was repeated until the number of individuals for each dose group was obtained (n=7 per group). The light luminance was 2700 lux, generated using fluorescent lamps (Philips Master TLD 18W/965; Koninklijke Philips Electronics N.V., China) directly above the animal cages. The lamps were cool and emitted broadband light, from 380 to 760 nm wavelength, with the average intensity at the top of the cage being 120 W/m2. Animals were free to move within the cage with access to food and water ad libidum. Baseline electroretinography (ERG) readings and optical coherence tomography (OCT) images were collected prior to the light damage. After light exposure, animals were returned to normal light-dark cycle conditions (12 hours light, 174 lux and 12 hours darkness, <62 lux) for 24 hours, 1 week or 2 weeks (and for one group 3 months).
Tonabersat treatment of light damaged rats—LD rats were randomly assigned to low, middle or high dose of tonabersat (n=7 per group). The mixture of tonabersat in peanut butter was prepared fresh for each experiment. Three oral tonabersat doses were tested (n=7 per group) with follow up to 2 weeks post-injury, and the highest dose group then split with three animals taken for histological analysis, and four animals followed to 3 months post-injury. There was a ten-animal vehicle only control group. The group of rats that were kept for 3 months were maintained in separate cages for drug or vehicle-treated animals, but were kept under the same light conditions. Tonabersat was fed to animals in peanut butter at 0.26 mg/kg (on average 0.08 mg delivered, estimated circulating concentration 10 μM), 0.8 mg/kg (average of 0.24 mg delivered; 30 μM circulating) or 2.4 mg/kg (on average 0.72 mg delivered; 90 μM circulating) following consideration of previous unsuccessful human trial dosing levels. Silberstein S D. Tonabersat, a novel gap-junction modulator for the prevention of migraine. Cephalalgia. […]

[1] = 2.4 mg/kg oral single dose, 3 months after light damage

CC(=O)c1ccc2c(c1)[C@H](NC(=O)c1ccc(F)c(Cl)c1)[C@H](O)C(C)(C)O2 [tonabersat, N-[(3S,4S)-6-acetyl-3-hydroxy-2,2-dimethyl-3,4-dihydrochromen-4-yl]-3-chloro-4-fluorobenzamide]
improvement in absolute amplitude of the b-wave (on average) (0.26 mg/kg oral): 1000 µV | mixed a-wave amplitude vs light damaged control group (0.26 mg/kg oral single dose, p<0.01): significant improvements | mixed b-wave function (0.26 mg/kg oral, 24 hours after treatment): significant improvement | improvement in absolute amplitude of the b-wave (on average) (0.8 mg/kg oral): 1000 µV | mixed a-wave amplitude vs light damaged control group (0.8 mg/kg oral single dose, p<0.01): significant improvements | mixed b-wave function (0.8 mg/kg oral, 24 hours after treatment): significant improvement | improvement in absolute amplitude of the b-wave (on average) (2.4 mg/kg oral): 1200 µV | mixed b-wave function, significant improvement (2.4 mg/kg oral (high dose), 24 hours after treatment): not seen | mixed a-wave amplitude vs light damaged control group (2.4 mg/kg oral single dose, intensities 0.1-2.1 log cd·s/m2, p<0.001): significant improvements | a-wave improvement in photoreceptor function compared with vehicle treated controls [1]: exceeding 400 V | b-wave amplitude compared with vehicle treated controls [1]: exceeded 800 V | PII rod response compared to before light damage (2.4 mg/kg oral, 3 months): no change; also recorded: matching the controls | PIII rod response compared to before light damage (2.4 mg/kg oral, 3 months): no change; also recorded: only slightly lower | ERG, difference to vehicle control group (24 hours post-light exposure, any of three oral doses (0.26, 0.8, 2.4 mg/kg)): no differences | inner retinal function (mixed b-wave amplitude, all stimulus intensities) (all three oral doses, 1 and 2 weeks post-treatment): overt improvement | improvement in ERG a-wave over vehicle treated light-injured group (all three oral doses, 2 weeks post-treatment, highest intensity, p<0.001): ~500 V | mixed a-wave amplitude (all three oral doses, 2 weeks post-treatment, intensities 0.1-2.1 log cd·s/m2, p<0.001): significant recovery | mixed a-wave and mixed b-wave functions (all tonabersat-treated animals, end of 2-week recovery period): within the range of variance for normal, undamaged albino rats
